One data set deals with T1, hERG (Homo sapiens, UniProt Q12809).
T1 construct: expressed in transfected cells; host or cells: CHO cells
Put plainly: electrophysiology-based hERG assay using IonWorks HT (CHO cells). Particulars: hERG IC50. It is filed as cell-based. Here is the method: hERG IC50 was determined in an electrophysiology-based hERG assay using IonWorks HT (CHO cells) as described earlier.
Background: The hERG channel carries a current that helps repolarise heart muscle cells.

In a further data set the target is T2, Muscarinic M2 receptor (Homo sapiens, UniProt P08172).
T2 construct: purchased CEREP, France (external assay service)
T2 sequence (P08172 1-466): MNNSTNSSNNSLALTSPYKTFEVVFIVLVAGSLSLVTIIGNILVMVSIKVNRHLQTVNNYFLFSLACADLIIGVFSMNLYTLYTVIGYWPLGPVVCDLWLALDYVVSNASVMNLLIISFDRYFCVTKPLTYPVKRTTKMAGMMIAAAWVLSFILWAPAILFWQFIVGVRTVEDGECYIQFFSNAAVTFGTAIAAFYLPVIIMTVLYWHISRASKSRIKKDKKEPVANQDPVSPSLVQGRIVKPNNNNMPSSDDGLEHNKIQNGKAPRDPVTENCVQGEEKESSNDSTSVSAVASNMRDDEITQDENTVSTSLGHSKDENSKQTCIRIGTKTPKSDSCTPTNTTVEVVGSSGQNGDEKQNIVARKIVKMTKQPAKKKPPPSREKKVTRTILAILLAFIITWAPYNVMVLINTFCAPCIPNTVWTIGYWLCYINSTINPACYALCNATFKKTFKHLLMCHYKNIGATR
Kind of data set: Muscarinic M2 receptor radioligand binding (CEREP). How it is done: (§1) An in vitro pharmacological profiling panel was specifically designed for the detection of potential high- risk clinical adverse drug reactions. The panel comprised of 26 diverse targets (6 enzymes, 2 transporters, 9 G-protein-coupled receptors (GPCRs), 5 ion channels along with hERG, M2, alpha1A and AchE) and was conduced externally by CEREP, France […]. […] Detailed methodology for in vitro pharmacological profiling assays provided by CEREP can be found at http://www.cerep.fr, with specific reference to the AChE (cat. no. 0363), Muscarinic M1 receptor (cat. no. 0091) and Adrenergic α1A receptor (cat. no. 2338) assays. For enzyme and kinase assays, the results were expressed as a percent inhibition of control-specific activity obtained in the presence of the test compound. The IC50 values (concentration causing a half-maximal inhibition of control-specific activity) and Hill coefficients (nH) were determined by nonlinear regression analysis of the inhibition/concentration–response curves using Hill equation curve fitting as described earlier.
(§2) For radioligand binding assays, the results are expressed as % inhibition of control-specific binding obtained in the presence of the test compounds. The IC50 values (concentration causing a half-maximal inhibition of control-specific binding) and Hill coefficients (nH) were determined by nonlinear regression analysis of the competition curves generated with mean replicate values using Hill equation curve fitting. The inhibition constants (Ki) were subsequently calculated by applying the Cheng Prusoff equation[38].

The subject of data set [1] is asexual blood stage of Pf. Kind of data set: Pf asexual blood stage potency (Pf IC50). In kind it is cell-based, Plasmodium falciparum. Particulars: Plasmodium falciparum. The text has this:
The TAPs series emerged from a high-throughput screen (HTS) of 500,000 compounds from the AstraZeneca corporate library against the asexual blood stage of Pf using a high-content image-based approach. The procedure for synthesis of compounds 1-6, 10, 11 using a scheme similar to Fig. 1 is provided in Supplementary Note 1. The initial hit provided multiple diversification points for a robust lead optimization campaign. […] Compounds with 2-pyridyl modification at the 2-amino position of pyrimidine core improved potency and solubility at the cost of potent activity against hERG and acetylcholine esterase (AChE; compounds 3-6; Table 1). […] The observed hERG and AChE selectivity improvement with 7 could be attributed to the polar nature of the pyrazole group and its role in reducing the pKa of the core pyrimidine ring. […] To assess the potential for cross-resistance, representative TAPs were screened against a panel of clinical isolates and in vitro-generated mutant strains displaying varying mechanisms of resistance to antimalarial agents currently in use and under development, respectively, (Supplementary Tables 1–3).

The nature of the next data set: Caco2 permeability. Particulars: human, Caco-2.
The nature of data set [2]: Rat blood PK, IV and oral. In kind it is in vivo. Particulars: Wistar, rat, whole blood, oral, 10 mg/kg, rat; read-out: Rat F (bioavailability). How it is done: Blood samples were collected at 0.083, 0.25, 0.5, 1, 2, 4, 8, 23, 32, 48, 55 and 72 hours after an IV dose of 2 mg/kg or an oral dose of 10 mg/kg. Oral administration was done using oral gavage at a maximum dose volume of 10 mL/kg. Solution formulation containing 10% NMP, 20% DMA in dextrose / normal saline was used for IV administration and a suspension in 0.5% w/v HPMC with 0.1% v/v Tween 80 was used for oral administration. 25 µl of blood samples were mixed with 100 µL of Milli-Q water and vortexed for 5 minutes in the plate shaker at a speed of 900 rpm to ensure complete hemolysis. Proteins were precipitated by adding 125 µL of cold acetonotrile containing internal standard. After extraction on a plate shaker for 10 minutes at 900 rpm, the plate was centrifuged at 4000 rpm for 20 minutes. The supernatant (180 µL) was transferred to another plate and 2.5 µL of Zinc sulphate (200 mM) was added to separate the heme fraction. This mixture was centrifuged and 10 µL of the supernatant was analyzed by LC-MS/MS. […]

In the next data set the target is T3, α1A adrenoceptor (Homo sapiens, UniProt P35348).
T3 construct: purchased CEREP, France (external assay service) 2338
T3 sequence (P35348 1-466): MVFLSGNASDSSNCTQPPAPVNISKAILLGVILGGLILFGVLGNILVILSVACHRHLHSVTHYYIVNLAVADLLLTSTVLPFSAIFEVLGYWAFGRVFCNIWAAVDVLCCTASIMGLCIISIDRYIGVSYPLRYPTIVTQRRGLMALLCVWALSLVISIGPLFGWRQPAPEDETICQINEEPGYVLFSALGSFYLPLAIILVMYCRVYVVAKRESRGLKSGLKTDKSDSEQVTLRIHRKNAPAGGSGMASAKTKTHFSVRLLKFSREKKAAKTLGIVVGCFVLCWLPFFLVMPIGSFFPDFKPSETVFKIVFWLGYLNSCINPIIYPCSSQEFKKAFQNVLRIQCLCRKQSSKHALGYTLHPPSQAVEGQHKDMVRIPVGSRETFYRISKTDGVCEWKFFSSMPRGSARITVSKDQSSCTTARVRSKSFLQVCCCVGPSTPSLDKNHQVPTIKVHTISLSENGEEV
Kind of data set: α1A adrenoceptor radioligand binding (CEREP). Here is the method: as §1, §2

For another data set, the system named is Pf DD2. Kind of data set: microbe, parasite or virus in culture. It is filed as cell-based. To be noted: Plasmodium falciparum. From the text: (§3) tested in duplicate from two independent experiments using a SYBR-Green based assay2.
(§4) (1 picture or pasted object on this page, not shown here)

The test system of a further data set is Pf 7G8. Kind of data set: microbe, parasite or virus in culture. It is filed as cell-based. Particulars: Plasmodium falciparum.
From the text: as §3, §4

Another data set relates to Pf W2. Put plainly: microbe, parasite or virus in culture. It is filed as cell-based. Particulars: Plasmodium falciparum.
From the text: as §3, §4

The subject of the next data set is Pf K1. Kind of data set: microbe, parasite or virus in culture. It is filed as cell-based. To be noted: Plasmodium falciparum.
From the text: as §3, §4

In another data set the test system is Pf NF54. Kind of data set: microbe, parasite or virus in culture. It is filed as cell-based. To be noted: Plasmodium falciparum.
From the text: as §3, §4

In another data set the test system is Pf SB1. Kind of data set: microbe, parasite or virus in culture. In kind it is cell-based. Particulars: Plasmodium falciparum.
From the text: as §3, §4

Data set [3] addresses T4, acetylcholine esterase (AChE) (Homo sapiens, UniProt P22303).
T4 construct: purchased CEREP, France (external assay service) 0363
Put plainly: AChE enzyme activity assay (CEREP). In kind it is biochemical. To be noted: read-out: AChE IC50. How it is done:
as §1

T4 sequence (P22303 32-614): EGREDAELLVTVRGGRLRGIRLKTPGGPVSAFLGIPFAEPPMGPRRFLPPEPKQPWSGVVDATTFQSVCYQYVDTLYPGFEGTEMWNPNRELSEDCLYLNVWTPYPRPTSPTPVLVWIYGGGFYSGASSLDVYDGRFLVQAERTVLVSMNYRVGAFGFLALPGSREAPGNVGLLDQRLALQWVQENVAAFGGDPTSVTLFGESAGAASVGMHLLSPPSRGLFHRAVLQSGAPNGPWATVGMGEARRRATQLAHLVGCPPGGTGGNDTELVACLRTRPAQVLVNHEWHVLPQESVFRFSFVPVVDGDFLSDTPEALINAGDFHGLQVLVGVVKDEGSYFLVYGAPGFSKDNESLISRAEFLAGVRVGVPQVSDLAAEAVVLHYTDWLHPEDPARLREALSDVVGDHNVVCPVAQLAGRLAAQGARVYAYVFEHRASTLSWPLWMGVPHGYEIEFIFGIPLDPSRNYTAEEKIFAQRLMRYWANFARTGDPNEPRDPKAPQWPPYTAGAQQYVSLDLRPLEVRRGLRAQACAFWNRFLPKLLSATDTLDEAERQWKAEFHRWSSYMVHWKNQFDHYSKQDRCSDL
T1 sequence (Q12809 whole entry): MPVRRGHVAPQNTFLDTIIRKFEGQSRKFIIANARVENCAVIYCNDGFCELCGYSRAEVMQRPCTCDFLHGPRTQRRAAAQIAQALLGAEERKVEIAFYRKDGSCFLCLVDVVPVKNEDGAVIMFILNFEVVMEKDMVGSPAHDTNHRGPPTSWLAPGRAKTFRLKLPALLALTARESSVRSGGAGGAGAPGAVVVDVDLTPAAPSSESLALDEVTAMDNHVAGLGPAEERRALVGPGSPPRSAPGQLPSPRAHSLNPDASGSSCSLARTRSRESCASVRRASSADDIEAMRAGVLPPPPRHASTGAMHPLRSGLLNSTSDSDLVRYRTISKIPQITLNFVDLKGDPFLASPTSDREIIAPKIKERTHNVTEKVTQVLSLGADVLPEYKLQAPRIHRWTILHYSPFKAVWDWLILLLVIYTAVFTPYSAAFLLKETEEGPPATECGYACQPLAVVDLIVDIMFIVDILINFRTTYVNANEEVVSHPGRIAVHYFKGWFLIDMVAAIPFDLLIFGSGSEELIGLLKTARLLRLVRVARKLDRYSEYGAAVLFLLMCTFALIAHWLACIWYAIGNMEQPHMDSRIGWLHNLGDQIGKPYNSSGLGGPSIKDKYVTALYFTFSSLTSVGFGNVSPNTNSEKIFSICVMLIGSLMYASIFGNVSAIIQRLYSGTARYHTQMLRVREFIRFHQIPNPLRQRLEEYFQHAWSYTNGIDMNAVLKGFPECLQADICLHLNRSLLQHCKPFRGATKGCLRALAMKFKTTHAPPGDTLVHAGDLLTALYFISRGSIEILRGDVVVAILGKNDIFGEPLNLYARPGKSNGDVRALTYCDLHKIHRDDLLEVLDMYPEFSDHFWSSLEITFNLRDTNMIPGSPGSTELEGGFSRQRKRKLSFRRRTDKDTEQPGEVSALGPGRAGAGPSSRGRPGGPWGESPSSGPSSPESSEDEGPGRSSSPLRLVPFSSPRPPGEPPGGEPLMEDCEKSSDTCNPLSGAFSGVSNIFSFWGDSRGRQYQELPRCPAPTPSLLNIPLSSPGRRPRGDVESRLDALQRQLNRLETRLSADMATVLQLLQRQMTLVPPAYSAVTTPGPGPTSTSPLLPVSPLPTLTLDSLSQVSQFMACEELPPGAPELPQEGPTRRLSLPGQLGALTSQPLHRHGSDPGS

As a reminder, the IC50 is the point on the concentration scale where inhibition reaches its midpoint. What is called Papp A→B is the apparent permeability from the apical to the basolateral side of a cell layer. Read a low Papp A→B as poor permeation. By bioavailability is commonly meant dose-corrected exposure relative to a reference, in per cent. Regarding `CCc1cc(Nc2ncc(N3CCN[C@H](C)C3)c(Nc3cc(C)n(C)n3)n2)nc(C)c1F.Cl.Cl` [compound 8, (R)-N4-(1,5-dimethyl-1H-pyrazol-3-yl)-N2-(4-ethyl-5-fluoro-6-methylpyridin-2-yl)-5-(3-methylpiperazin-1-yl)pyrimidine-2,4-diamine dihydrochloride], the IC50 against hERG is over 30 µM; at Muscarinic M2 receptor, 3.1 µM; in data set [1], 0.025 µM; on α1A adrenoceptor, 1.3 µM; in the data set with Pf DD2, 0.0383 ± 0.0015 µM; in the data set on Pf 7G8, 0.0744 ± 0.017 µM. For the same molecule, the IC50 with Pf W2 amounted to 0.0788 ± 0.007 µM; in the data set with Pf K1 it was 0.0647 ± 0.012 µM; in the data set with Pf NF54, 0.0572 ± 0.02 µM; in the data set with Pf SB1 it was 0.0347 ± 0.003 µM; in [3], 30 µM. The same molecule registered a Papp A→B in the data set “Caco2 permeability” of 40 nm/s. The bioavailability in data set [2] amounted to 31%.

For the origin of these results see article PMC4389225, “Triaminopyrimidine is a fast-killing and long-acting antimalarial clinical candidate” (Nature Communications, 2015).
